Source: ChEMBL document CHEMBL3124777, “Synthesis and biological evaluation of thiazoline derivatives as new antimicrobial and anticancer agents” (Eur J Med Chem, 2014)
≈ marks a conversion by molar mass, not a printed value.

Experiments:
[1] = test system: NIH3T3; test: Cytotoxicity against mouse NIH/3T3 cells after 24 hrs by MTT assay; assay type: cell-based; settings: NIH3T3, 24 h
[2] = test system: Candida albicans; test: Antimicrobial activity against Candida albicans ATCC 22019 after 18 to 24 hrs by microbroth dilution method; assay type: functional
[3] = test system: Fusarium culmorum; test: Antimicrobial activity against wild type Fusarium culmorum after 48 to 72 hrs by microbroth dilution method; assay type: functional
[4] = test system: Fusarium verticillioides; test: Antimicrobial activity against Fusarium moniliforme NRRL 1866 after 48 to 72 hrs by microbroth dilution method; assay type: functional
[5] = test system: Fusarium solani; test: Antimicrobial activity against Fusarium solani NRRL 13414 after 48 to 72 hrs by microbroth dilution method; assay type: functional
[6] = test system: Aspergillus ochraceus; test: Antimicrobial activity against Aspergillus ochraceus NRRL 3174 after 48 to 72 hrs by microbroth dilution method; assay type: functional
[7] = test system: Trichoderma harzianum; test: Antimicrobial activity against Trichoderma harzianum NRRL 20565 after 48 to 72 hrs by microbroth dilution method; assay type: functional
[8] = test system: Penicillium chrysogenum; test: Antimicrobial activity against Penicillium chrysogenum NRRL 1951 after 48 to 72 hrs by microbroth dilution method; assay type: functional
[9] = test system: Aspergillus parasiticus; test: Antimicrobial activity against Aspergillus parasiticus NRRL 465 after 48 to 72 hrs by microbroth dilution method; assay type: functional
[10] = test system: Bacillus subtilis; test: Antimicrobial activity against Bacillus subtilis NRS-744 after 18 to 24 hrs by microbroth dilution method; assay type: functional
[11] = test system: Micrococcus luteus; test: Antimicrobial activity against Micrococcus luteus NRLL B-4375 after 18 to 24 hrs by microbroth dilution method; assay type: functional
[12] = test system: Pseudomonas aeruginosa; test: Antimicrobial activity against Pseudomonas aeruginosa […] after 18 to 24 hrs by microbroth dilution method; assay type: functional
[13] = test system: Escherichia coli; test: Antimicrobial activity against Escherichia coli ATCC 25922 after 18 to 24 hrs by microbroth dilution method; assay type: functional
[14] = test system: Listeria monocytogenes; test: Antimicrobial activity against Listeria monocytogenes ATCC 7644 after 18 to 24 hrs by microbroth dilution method; assay type: functional
[15] = test system: Staphylococcus aureus; test: Antimicrobial activity against Staphylococcus aureus NRRL B-767 after 18 to 24 hrs by microbroth dilution method; assay type: functional

Cn1cnnc1SCC(=O)N/N=c1/scc(-c2ccc(Br)cc2)n1-c1ccccc1
IC50 [1]: 58.3 µg/mL (≈ 116 µM) | MIC [2]: 250 µg/mL (≈ 499 µM) | MIC [3]: 250 µg/mL (≈ 499 µM) | MIC [4]: 250 µg/mL (≈ 499 µM) | MIC [5]: 250 µg/mL (≈ 499 µM) | MIC [6]: 250 µg/mL (≈ 499 µM) | MIC [7]: 125 µg/mL (≈ 249 µM) | MIC [8]: 250 µg/mL (≈ 499 µM) | MIC [9]: 250 µg/mL (≈ 499 µM) | MIC [10]: 250 µg/mL (≈ 499 µM) | MIC [11]: 250 µg/mL (≈ 499 µM) | MIC [12]: 250 µg/mL (≈ 499 µM) | MIC [13]: 250 µg/mL (≈ 499 µM) | MIC [14]: 250 µg/mL (≈ 499 µM) | MIC [15]: 250 µg/mL (≈ 499 µM)

O=C(CSc1ncccn1)N/N=c1/scc(-c2ccc([N+](=O)[O-])cc2)n1-c1ccccc1
IC50 [1]: 193 µg/mL (≈ 416 µM) | MIC [2]: 250 µg/mL (≈ 538 µM) | MIC [3]: 250 µg/mL (≈ 538 µM) | MIC [4]: 250 µg/mL (≈ 538 µM) | MIC [5]: 250 µg/mL (≈ 538 µM) | MIC [6]: 250 µg/mL (≈ 538 µM) | MIC [7]: 250 µg/mL (≈ 538 µM) | MIC [8]: 250 µg/mL (≈ 538 µM) | MIC [9]: 250 µg/mL (≈ 538 µM) | MIC [10]: 250 µg/mL (≈ 538 µM) | MIC [11]: 250 µg/mL (≈ 538 µM) | MIC [12]: 250 µg/mL (≈ 538 µM) | MIC [13]: 250 µg/mL (≈ 538 µM) | MIC [14]: 250 µg/mL (≈ 538 µM) | MIC [15]: 250 µg/mL (≈ 538 µM)

Cn1cnnc1SCC(=O)N/N=c1/scc(-c2ccc(F)cc2)n1-c1ccccc1
IC50 [1]: 65 µg/mL (≈ 148 µM) | MIC [2]: 250 µg/mL (≈ 567 µM) | MIC [3]: 250 µg/mL (≈ 567 µM) | MIC [4]: 250 µg/mL (≈ 567 µM) | MIC [5]: 250 µg/mL (≈ 567 µM) | MIC [6]: 250 µg/mL (≈ 567 µM) | MIC [7]: 250 µg/mL (≈ 567 µM) | MIC [8]: 250 µg/mL (≈ 567 µM) | MIC [9]: 250 µg/mL (≈ 567 µM) | MIC [10]: 250 µg/mL (≈ 567 µM) | MIC [11]: 250 µg/mL (≈ 567 µM) | MIC [12]: 125 µg/mL (≈ 284 µM) | MIC [13]: 125 µg/mL (≈ 284 µM) | MIC [14]: 125 µg/mL (≈ 284 µM) | MIC [15]: 125 µg/mL (≈ 284 µM)

CN[C@@H]1[C@H](O[C@H]2[C@H](O[C@H]3[C@H](O)[C@@H](O)[C@H](N=C(N)N)[C@@H](O)[C@@H]3N=C(N)N)O[C@@H](C)[C@]2(O)C=O)O[C@@H](CO)[C@H](O)[C@H]1O [STREPTOMYCIN]
MIC [10]: 15.6 µg/mL (≈ 26.9 µM) | MIC [11]: 15.6 µg/mL (≈ 26.9 µM) | MIC [12]: 125 µg/mL (≈ 215 µM) | MIC [13]: 31.2 µg/mL (≈ 53.7 µM) | MIC [14]: 7.81 µg/mL (≈ 13.4 µM) | MIC [15]: 31.2 µg/mL (≈ 53.7 µM)

Cn1cnnc1SCC(=O)N/N=c1/scc(-c2ccc([N+](=O)[O-])cc2)n1-c1ccccc1
IC50 [1]: 133 µg/mL (≈ 285 µM) | MIC [2]: 250 µg/mL (≈ 535 µM) | MIC [3]: 250 µg/mL (≈ 535 µM) | MIC [4]: 250 µg/mL (≈ 535 µM) | MIC [5]: 250 µg/mL (≈ 535 µM) | MIC [6]: 250 µg/mL (≈ 535 µM) | MIC [7]: 250 µg/mL (≈ 535 µM) | MIC [8]: 250 µg/mL (≈ 535 µM) | MIC [9]: 250 µg/mL (≈ 535 µM) | MIC [10]: 125 µg/mL (≈ 267 µM) | MIC [11]: 125 µg/mL (≈ 267 µM) | MIC [12]: 250 µg/mL (≈ 535 µM) | MIC [13]: 250 µg/mL (≈ 535 µM) | MIC [14]: 250 µg/mL (≈ 535 µM) | MIC [15]: 250 µg/mL (≈ 535 µM)

O=C(CSc1nnnn1-c1ccccc1)N/N=c1/scc(-c2ccc([N+](=O)[O-])cc2)n1-c1ccccc1
IC50 [1]: 14.3 µg/mL (≈ 27 µM) | MIC [2]: 250 µg/mL (≈ 471 µM) | MIC [3]: 250 µg/mL (≈ 471 µM) | MIC [4]: 250 µg/mL (≈ 471 µM) | MIC [5]: 250 µg/mL (≈ 471 µM) | MIC [6]: 250 µg/mL (≈ 471 µM) | MIC [7]: 125 µg/mL (≈ 236 µM) | MIC [8]: 250 µg/mL (≈ 471 µM) | MIC [9]: 250 µg/mL (≈ 471 µM) | MIC [10]: 250 µg/mL (≈ 471 µM) | MIC [11]: 500 µg/mL (≈ 942 µM) | MIC [12]: 250 µg/mL (≈ 471 µM) | MIC [13]: 250 µg/mL (≈ 471 µM) | MIC [14]: 250 µg/mL (≈ 471 µM) | MIC [15]: 250 µg/mL (≈ 471 µM)

COc1ccc(-c2cs/c(=N/NC(=O)CSc3nnnn3C)n2-c2ccccc2)cc1
IC50 [1]: 45 µg/mL (≈ 99.2 µM) | MIC [2]: 250 µg/mL (≈ 551 µM) | MIC [3]: 250 µg/mL (≈ 551 µM) | MIC [4]: 250 µg/mL (≈ 551 µM) | MIC [5]: 250 µg/mL (≈ 551 µM) | MIC [6]: 250 µg/mL (≈ 551 µM) | MIC [7]: 250 µg/mL (≈ 551 µM) | MIC [8]: 250 µg/mL (≈ 551 µM) | MIC [9]: 250 µg/mL (≈ 551 µM) | MIC [10]: 250 µg/mL (≈ 551 µM) | MIC [11]: 250 µg/mL (≈ 551 µM) | MIC [12]: 250 µg/mL (≈ 551 µM) | MIC [13]: 500 µg/mL (≈ 1100 µM) | MIC [14]: 250 µg/mL (≈ 551 µM) | MIC [15]: 250 µg/mL (≈ 551 µM)

CC(=O)N1CCN(c2ccc(OCC3COC(Cn4ccnc4)(c4ccc(Cl)cc4Cl)O3)cc2)CC1 (centres undefined) [KETOCONAZOLE]
MIC [2]: 250 µg/mL (≈ 470 µM) | MIC [3]: 500 µg/mL (≈ 941 µM) | MIC [4]: 500 µg/mL (≈ 941 µM) | MIC [5]: 500 µg/mL (≈ 941 µM) | MIC [6]: 250 µg/mL (≈ 470 µM) | MIC [7]: 250 µg/mL (≈ 470 µM) | MIC [8]: 7.8 µg/mL (≈ 14.7 µM) | MIC [9]: 125 µg/mL (≈ 235 µM)

Cn1nnnc1SCC(=O)N/N=c1/scc(-c2ccc(Cl)cc2)n1-c1ccccc1
IC50 [1]: 40 µg/mL (≈ 87.3 µM) | MIC [2]: 250 µg/mL (≈ 546 µM) | MIC [3]: 250 µg/mL (≈ 546 µM) | MIC [4]: 250 µg/mL (≈ 546 µM) | MIC [5]: 250 µg/mL (≈ 546 µM) | MIC [6]: 250 µg/mL (≈ 546 µM) | MIC [7]: 250 µg/mL (≈ 546 µM) | MIC [8]: 250 µg/mL (≈ 546 µM) | MIC [9]: 250 µg/mL (≈ 546 µM) | MIC [10]: 250 µg/mL (≈ 546 µM) | MIC [11]: 250 µg/mL (≈ 546 µM) | MIC [12]: 250 µg/mL (≈ 546 µM) | MIC [13]: 250 µg/mL (≈ 546 µM) | MIC [14]: 250 µg/mL (≈ 546 µM) | MIC [15]: 500 µg/mL (≈ 1090 µM)
